# ± gives the expanded uncertainty stated by the source.
# Conditions: 323.15 K, Liquid, Vibrating tube method
smiles,measurement,setting,value
CCCC(=O)OCC(COC(=O)CCC)(COC(=O)CCC)COC(=O)CCC [pentaerythritol tetrabutyrate],mass density,11242 kPa,1032.9 ± 1.2 kg/m3
same,mass density,11279 kPa,1033 ± 1.2 kg/m3
same,mass density,11316 kPa,1033 ± 1.2 kg/m3
same,mass density,11352 kPa,1033 ± 1.2 kg/m3
same,mass density,11384 kPa,1033.1 ± 1.2 kg/m3
same,mass density,11409 kPa,1033 ± 1.2 kg/m3
same,mass density,11434 kPa,1033.1 ± 1.2 kg/m3
same,mass density,11464 kPa,1033 ± 1.2 kg/m3
same,mass density,11489 kPa,1033.1 ± 1.2 kg/m3
same,mass density,11520 kPa,1033.2 ± 1.2 kg/m3
same,mass density,11545 kPa,1033.1 ± 1.2 kg/m3
same,mass density,11573 kPa,1033.1 ± 1.2 kg/m3
same,mass density,11598 kPa,1033.2 ± 1.2 kg/m3
same,mass density,11625 kPa,1033.2 ± 1.2 kg/m3
same,mass density,11655 kPa,1033.2 ± 1.2 kg/m3
same,mass density,11681 kPa,1033.3 ± 1.2 kg/m3
same,mass density,11713 kPa,1033.3 ± 1.2 kg/m3
same,mass density,11740 kPa,1033.2 ± 1.2 kg/m3
same,mass density,11766 kPa,1033.3 ± 1.2 kg/m3
same,mass density,11793 kPa,1033.3 ± 1.2 kg/m3
same,mass density,11825 kPa,1033.4 ± 1.2 kg/m3
same,mass density,11853 kPa,1033.3 ± 1.2 kg/m3
same,mass density,11880 kPa,1033.5 ± 1.2 kg/m3
same,mass density,11914 kPa,1033.4 ± 1.2 kg/m3
same,mass density,11944 kPa,1033.4 ± 1.2 kg/m3
same,mass density,11971 kPa,1033.4 ± 1.2 kg/m3
same,mass density,11999 kPa,1033.4 ± 1.2 kg/m3
same,mass density,12033 kPa,1033.4 ± 1.2 kg/m3
same,mass density,12061 kPa,1033.5 ± 1.2 kg/m3
same,mass density,12089 kPa,1033.5 ± 1.2 kg/m3
same,mass density,12122 kPa,1033.6 ± 1.2 kg/m3
same,mass density,12151 kPa,1033.6 ± 1.2 kg/m3
same,mass density,12180 kPa,1033.6 ± 1.2 kg/m3
same,mass density,12214 kPa,1033.5 ± 1.2 kg/m3
same,mass density,12243 kPa,1033.7 ± 1.2 kg/m3
same,mass density,12272 kPa,1033.6 ± 1.2 kg/m3
same,mass density,12367 kPa,1033.8 ± 1.2 kg/m3
same,mass density,12397 kPa,1033.7 ± 1.2 kg/m3
same,mass density,12432 kPa,1033.7 ± 1.2 kg/m3
same,mass density,12462 kPa,1033.8 ± 1.2 kg/m3
same,mass density,12499 kPa,1033.8 ± 1.2 kg/m3
same,mass density,12530 kPa,1033.9 ± 1.2 kg/m3
same,mass density,12555 kPa,1033.8 ± 1.2 kg/m3
same,mass density,12591 kPa,1033.9 ± 1.2 kg/m3
same,mass density,12623 kPa,1033.9 ± 1.2 kg/m3
same,mass density,12660 kPa,1033.9 ± 1.2 kg/m3
same,mass density,12691 kPa,1033.9 ± 1.2 kg/m3
same,mass density,12724 kPa,1033.9 ± 1.2 kg/m3
same,mass density,12762 kPa,1033.9 ± 1.2 kg/m3
same,mass density,12794 kPa,1034.1 ± 1.2 kg/m3
same,mass density,12826 kPa,1033.9 ± 1.2 kg/m3
same,mass density,12858 kPa,1034 ± 1.2 kg/m3
same,mass density,12897 kPa,1034.1 ± 1.2 kg/m3
same,mass density,12930 kPa,1034.1 ± 1.2 kg/m3
same,mass density,12969 kPa,1034.1 ± 1.2 kg/m3
same,mass density,13003 kPa,1034.2 ± 1.2 kg/m3
same,mass density,13037 kPa,1034.3 ± 1.2 kg/m3
same,mass density,13072 kPa,1034.3 ± 1.2 kg/m3
same,mass density,13115 kPa,1034.3 ± 1.2 kg/m3
same,mass density,13152 kPa,1034.3 ± 1.2 kg/m3
same,mass density,13184 kPa,1034.2 ± 1.2 kg/m3
same,mass density,13211 kPa,1034.3 ± 1.2 kg/m3
same,mass density,13233 kPa,1034.3 ± 1.2 kg/m3
same,mass density,13255 kPa,1034.4 ± 1.2 kg/m3
same,mass density,13281 kPa,1034.4 ± 1.2 kg/m3
same,mass density,13303 kPa,1034.4 ± 1.2 kg/m3
same,mass density,13326 kPa,1034.4 ± 1.2 kg/m3
same,mass density,13352 kPa,1034.3 ± 1.2 kg/m3
same,mass density,13375 kPa,1034.4 ± 1.2 kg/m3
same,mass density,13398 kPa,1034.5 ± 1.2 kg/m3
same,mass density,13420 kPa,1034.5 ± 1.2 kg/m3
same,mass density,13447 kPa,1034.5 ± 1.2 kg/m3
same,mass density,13470 kPa,1034.5 ± 1.2 kg/m3
same,mass density,13493 kPa,1034.5 ± 1.2 kg/m3
same,mass density,13520 kPa,1034.5 ± 1.2 kg/m3
same,mass density,13543 kPa,1034.6 ± 1.2 kg/m3
same,mass density,13570 kPa,1034.5 ± 1.2 kg/m3
same,mass density,13593 kPa,1034.6 ± 1.2 kg/m3
same,mass density,13616 kPa,1034.6 ± 1.2 kg/m3
same,mass density,13639 kPa,1034.7 ± 1.2 kg/m3
same,mass density,13667 kPa,1034.5 ± 1.2 kg/m3
same,mass density,13690 kPa,1034.6 ± 1.2 kg/m3
same,mass density,13718 kPa,1034.6 ± 1.2 kg/m3
same,mass density,13742 kPa,1034.6 ± 1.2 kg/m3
same,mass density,13766 kPa,1034.7 ± 1.2 kg/m3
same,mass density,13794 kPa,1034.6 ± 1.2 kg/m3
same,mass density,13819 kPa,1034.6 ± 1.2 kg/m3
same,mass density,13843 kPa,1034.7 ± 1.2 kg/m3
same,mass density,13867 kPa,1034.7 ± 1.2 kg/m3
same,mass density,13896 kPa,1034.8 ± 1.2 kg/m3
same,mass density,13920 kPa,1034.7 ± 1.2 kg/m3
same,mass density,13945 kPa,1034.8 ± 1.2 kg/m3
same,mass density,13974 kPa,1034.9 ± 1.2 kg/m3
same,mass density,13998 kPa,1034.8 ± 1.2 kg/m3
same,mass density,14027 kPa,1034.8 ± 1.2 kg/m3
same,mass density,14052 kPa,1034.9 ± 1.2 kg/m3
same,mass density,14215 kPa,1035 ± 1.2 kg/m3
same,mass density,14240 kPa,1034.9 ± 1.2 kg/m3
same,mass density,14265 kPa,1034.9 ± 1.2 kg/m3
same,mass density,14296 kPa,1035.1 ± 1.2 kg/m3
same,mass density,14322 kPa,1035 ± 1.2 kg/m3
same,mass density,14348 kPa,1035.1 ± 1.2 kg/m3
same,mass density,14379 kPa,1035 ± 1.2 kg/m3
same,mass density,14405 kPa,1035 ± 1.2 kg/m3
same,mass density,14431 kPa,1035 ± 1.2 kg/m3
same,mass density,14462 kPa,1035.1 ± 1.2 kg/m3
same,mass density,14490 kPa,1035 ± 1.2 kg/m3
same,mass density,14518 kPa,1035.2 ± 1.2 kg/m3
same,mass density,14544 kPa,1035.1 ± 1.2 kg/m3
same,mass density,14571 kPa,1035.2 ± 1.2 kg/m3
same,mass density,14603 kPa,1035.1 ± 1.2 kg/m3
same,mass density,14630 kPa,1035.2 ± 1.2 kg/m3
same,mass density,14658 kPa,1035.3 ± 1.2 kg/m3
same,mass density,14690 kPa,1035.3 ± 1.2 kg/m3
same,mass density,14717 kPa,1035.3 ± 1.2 kg/m3
same,mass density,14749 kPa,1035.4 ± 1.2 kg/m3
same,mass density,14805 kPa,1035.4 ± 1.2 kg/m3
same,mass density,14833 kPa,1035.3 ± 1.2 kg/m3
same,mass density,14867 kPa,1035.3 ± 1.2 kg/m3
same,mass density,14895 kPa,1035.4 ± 1.2 kg/m3
same,mass density,14923 kPa,1035.5 ± 1.2 kg/m3
same,mass density,14957 kPa,1035.4 ± 1.2 kg/m3
same,mass density,14986 kPa,1035.4 ± 1.2 kg/m3
same,mass density,15014 kPa,1035.5 ± 1.2 kg/m3
same,mass density,15048 kPa,1035.6 ± 1.2 kg/m3
same,mass density,15077 kPa,1035.6 ± 1.2 kg/m3
same,mass density,15105 kPa,1035.6 ± 1.2 kg/m3
same,mass density,15140 kPa,1035.6 ± 1.2 kg/m3
same,mass density,15169 kPa,1035.7 ± 1.2 kg/m3
same,mass density,15199 kPa,1035.6 ± 1.2 kg/m3
same,mass density,15229 kPa,1035.5 ± 1.2 kg/m3
same,mass density,15265 kPa,1035.6 ± 1.2 kg/m3
same,mass density,15294 kPa,1035.6 ± 1.2 kg/m3
same,mass density,15325 kPa,1035.7 ± 1.2 kg/m3
same,mass density,15360 kPa,1035.7 ± 1.2 kg/m3
same,mass density,15390 kPa,1035.7 ± 1.2 kg/m3
same,mass density,15421 kPa,1035.8 ± 1.2 kg/m3
same,mass density,15456 kPa,1035.8 ± 1.2 kg/m3
same,mass density,15487 kPa,1035.8 ± 1.2 kg/m3
same,mass density,15517 kPa,1035.8 ± 1.2 kg/m3
same,mass density,15554 kPa,1035.8 ± 1.2 kg/m3
same,mass density,15585 kPa,1035.9 ± 1.2 kg/m3
same,mass density,15616 kPa,1035.9 ± 1.2 kg/m3
same,mass density,15653 kPa,1036 ± 1.2 kg/m3
same,mass density,15685 kPa,1035.9 ± 1.2 kg/m3
same,mass density,15716 kPa,1036 ± 1.2 kg/m3
same,mass density,15748 kPa,1036 ± 1.2 kg/m3

# Source: the NIST ThermoML archive (doi:10.1021/je060271a)
